Test results published in ChEMBL document CHEMBL3507680, “University of Dundee, Gates Library screen for HepG2 cell viability”.

assay: Human HepG2 cell viability assay in 384 well format; assay type: toxicity, cell-based; set-up: dose 125 nL, time 70.5 hour; cytotoxicity at 70.5 h: concentration not given beside the values; settings: HepG2 cells, read-out: Inhibition

Point of comparison: `Cc1nn(C)cc1-c1ccnc(N(C)Cc2noc(C(C)C)n2)n1`, cytotoxicity at 70.5 h -2.05%. Against it:
- c1cc(CN2CCO[C@H]3[C@H](OCCN4CCCC4)CC[C@@H]32)co1 — lower, -14.8%
- COCCn1/c(=N/C(=O)C(C)C)sc2cc(Cl)ccc21 — higher, 21.1%
- CCc1ccc(C(C)NC(=O)CN(C)Cc2ccc(C)o2)cc1 (stereo unspecified) — lower, -15%
- COc1ccnc(N2CCN(C(=O)c3ccc(Cl)o3)CC2)n1 — lower, -4.43%
- Cc1ncsc1CCN(C)C(=O)CN1CCOC1=O — higher, 8.27%
- CNC(=O)CCc1cc(C2CCN(c3cnccn3)CC2)nc(C)n1 — lower, -8.81%
- CC(C)n1cnc2c1C(C(=O)N(C)C)N(Cc1ccccc1)CC2 (stereo unspecified) — lower, -3.01%
- CC(=O)N1C[C@@H](c2ccsc2)[C@@H]2CN(Cc3ccccc3)CC[C@@H]21 — lower, -10.8%
- CCOc1cc(CNC(C)c2sccc2C)ccn1 (stereo unspecified) — higher, -0.185%
- CO[C@H]1CN(S(=O)(=O)c2ccc(C)cc2)C[C@@]12CCCO2 — lower, -6.6%
- CC(SCC(=O)NC(N)=O)c1ccccc1F (stereo unspecified) — lower, -8.18%
- CC(c1ccc(-c2cnc(N)nc2)cc1)N1CCOCC1 (stereo unspecified) — lower, -3.76%
- O=C(NC1CCCCC1)c1cc(Br)cnc1N1CCCCC1 — lower, -4.56%
- O=C1CSC(c2cccs2)c2cnn(C3CCCC3)c2N1 (stereo unspecified) — lower, -5.69%
- Cc1cc2c(N3CCC(N(C)CCc4cnn(C)c4)CC3)ncnc2s1 — higher, 2.46%
- CC(Nc1ccc(F)cc1)c1nnnn1-c1ccccc1 (stereo unspecified) — lower, -109%
- COC(=O)CCNC(=O)c1ccc(NC(=O)N(C)CC(C)C)cc1 — higher, 12.2%
- CS(=O)(=O)NC[C@]12COC[C@H]1CN(C(=O)C1CCSCC1)C2 — lower, -5.88%
- CCc1c(C)[nH]c(C2(N)CCCCC2)nc1=O — higher, 0.763%
- O=C(NCc1nnc2n1CCCC2)N1CCc2ccccc2C1 — lower, -2.97%
- COc1ccc(CNCC2CCN(c3ccccc3OC)C2)cc1O (stereo unspecified) — higher, 5.43%
- CC(C)NC(=O)CCCn1cnc2ccccc2c1=O — higher, 16.8%
- Cn1nccc1C1CCN(CC(O)c2cccc(F)c2)CC1 (stereo unspecified) — lower, -8.37%
- Cc1ccc(OC2(C(=O)NC(C)Cc3ccsc3)CCNCC2)cc1 (stereo unspecified) — higher, 7.16%
- Cc1noc(C2CCC3(CCN(C(=O)c4ccn(C)n4)CC3)O2)n1 (stereo unspecified) — higher, 10.4%
- Cn1cc2ncn(C3CCN(c4ccccc4F)CC3)c(=O)c2n1 — lower, -11%
- CCC1=NOC(CNCc2cnc(-c3ccccc3C)s2)C1 (stereo unspecified) — lower, -6.62%
- CC(C)c1nnc(NC(=O)NCc2ccc(CO)c(F)c2)s1 — lower, -13.4%
- Cc1nonc1CN(C)c1nc(-c2ccco2)nc2c1CCN(C)CC2 — lower, -8.33%
- O=S(=O)(CCNC1CCc2ncnn2C1)c1ccccc1 (stereo unspecified) — lower, -2.34%
- CC(C)CC(NC(=O)c1cccc(F)c1F)C(=O)Nc1cc[nH]n1 (stereo unspecified) — higher, -1.3%
- Fc1ccc(-c2n[nH]cc2CNCCn2cccn2)cc1 — lower, -4.83%
- CCCNC(=O)c1ccc(NC(=O)NC(C)c2ccccn2)cc1 (stereo unspecified) — lower, -8.01%
- COc1cccc(CC(=O)N2CCCC2c2nc(C)c(C)c(O)n2)c1 (stereo unspecified) — lower, -2.86%
- Cc1ccc2c(c1)N(C(=O)c1nccnc1N)CC(C)O2 (stereo unspecified) — lower, -3.11%
- CCCn1cc(-c2cc(-c3ccoc3)c(C#N)c(N)n2)c(C)n1 — higher, 5.86%
- CC(C)NS(=O)(=O)c1cc(C(=O)O)cc(-c2ccccc2CN(C)C)c1 — higher, -1.54%
- Cc1[nH]c2c(F)cccc2c1CC(=O)N1CCC(NS(C)(=O)=O)CC1 — lower, -7.49%
- CCCS(=O)(=O)N1CCC2(CCCC(=O)N2C)CC1 — lower, -9.65%
- O=C(Cc1cccnc1)N1CCC2(CC1)CCN(C1CCOCC1)C2 — lower, -3.79%
- CN(Cc1ccc(Cl)s1)C(=O)NCCC(=O)N1CCCCCC1 — lower, -4.9%
- NC(=O)CN1CCCC(c2ccnc(Nc3ncccn3)c2)C1 (stereo unspecified) — higher, 18.8%
- CN(Cc1cnccn1)S(=O)(=O)N1CCCC1c1ccco1 (stereo unspecified) — higher, 1.01%
- CSC(C)(C)CNC(=O)NC1CCN(C)CC1 — lower, -3.38%
- O=C(Cc1csc(-c2ccccc2Cl)n1)NCc1cccc(C(=O)O)c1 — lower, -18.1%
